Values belong to the compound of their own block, whether it stands above or below them.
Columns and labels:
[1] = molecular target: Mitogen-activated protein kinase kinase kinase 20 (Homo sapiens) (UniProt Q9NYL2); experiment: Selectivity interaction (KinomeScan (DiscoverX)) EUB0000618a MAP3K20; conditions: at 10 µM
[2] = molecular target: T1, Serine/threonine-protein kinase DCLK2 (Homo sapiens) (UniProt Q8N568); conditions: at 10 µM
T1 sequence (whole entry): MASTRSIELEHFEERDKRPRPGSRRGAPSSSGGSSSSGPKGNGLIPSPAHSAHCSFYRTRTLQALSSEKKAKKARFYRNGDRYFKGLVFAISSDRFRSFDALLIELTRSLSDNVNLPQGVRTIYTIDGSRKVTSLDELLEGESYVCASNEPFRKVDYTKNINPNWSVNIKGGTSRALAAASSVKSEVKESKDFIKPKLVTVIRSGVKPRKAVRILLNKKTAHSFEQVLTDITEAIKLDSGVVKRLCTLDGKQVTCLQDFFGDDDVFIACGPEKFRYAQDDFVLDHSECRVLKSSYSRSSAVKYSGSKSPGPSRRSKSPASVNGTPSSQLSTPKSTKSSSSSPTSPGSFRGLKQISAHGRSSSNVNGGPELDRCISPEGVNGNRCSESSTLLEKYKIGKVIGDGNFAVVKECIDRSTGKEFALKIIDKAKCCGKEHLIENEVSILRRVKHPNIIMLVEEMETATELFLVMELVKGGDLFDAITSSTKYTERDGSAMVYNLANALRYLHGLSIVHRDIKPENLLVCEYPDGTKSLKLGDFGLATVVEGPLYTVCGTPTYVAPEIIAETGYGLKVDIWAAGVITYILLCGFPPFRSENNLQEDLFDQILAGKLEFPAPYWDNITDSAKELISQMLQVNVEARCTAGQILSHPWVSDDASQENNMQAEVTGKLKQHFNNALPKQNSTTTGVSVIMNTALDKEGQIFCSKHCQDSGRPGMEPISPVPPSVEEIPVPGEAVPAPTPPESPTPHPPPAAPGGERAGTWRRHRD

[3] = molecular target: Calcium/calmodulin-dependent protein kinase type II subunit delta (Homo sapiens) (UniProt Q13557); experiment: Selectivity interaction (KinomeScan (DiscoverX)) EUB0000595a CAMK2D; conditions: at 10 µM
Calcium/calmodulin-dependent protein kinase type II subunit delta (Homo sapiens), sequence (Q13557 whole entry): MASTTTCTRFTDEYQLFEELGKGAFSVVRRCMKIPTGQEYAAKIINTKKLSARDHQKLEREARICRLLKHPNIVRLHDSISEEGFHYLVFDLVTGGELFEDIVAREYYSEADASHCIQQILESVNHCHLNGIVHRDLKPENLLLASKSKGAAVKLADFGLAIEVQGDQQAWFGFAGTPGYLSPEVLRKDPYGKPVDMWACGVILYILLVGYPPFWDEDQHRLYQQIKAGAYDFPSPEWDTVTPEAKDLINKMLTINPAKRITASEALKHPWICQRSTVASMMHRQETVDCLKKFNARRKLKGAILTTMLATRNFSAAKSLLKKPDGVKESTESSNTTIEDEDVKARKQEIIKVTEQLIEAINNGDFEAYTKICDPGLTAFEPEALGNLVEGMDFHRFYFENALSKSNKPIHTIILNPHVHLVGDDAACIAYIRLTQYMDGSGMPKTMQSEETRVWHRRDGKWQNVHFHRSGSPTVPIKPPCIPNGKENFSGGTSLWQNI

[4] = molecular target: T2, Inhibitor of nuclear factor kappa-B kinase subunit epsilon (Homo sapiens) (UniProt Q14164); experiment: Selectivity interaction (ActivX KiNativ screen (kinase selectivity in THP-1 cell lysates)) EUB0000639a IKBKE; format: subcellular; conditions: lysate, at 0.2 µM
T2 sequence (whole entry): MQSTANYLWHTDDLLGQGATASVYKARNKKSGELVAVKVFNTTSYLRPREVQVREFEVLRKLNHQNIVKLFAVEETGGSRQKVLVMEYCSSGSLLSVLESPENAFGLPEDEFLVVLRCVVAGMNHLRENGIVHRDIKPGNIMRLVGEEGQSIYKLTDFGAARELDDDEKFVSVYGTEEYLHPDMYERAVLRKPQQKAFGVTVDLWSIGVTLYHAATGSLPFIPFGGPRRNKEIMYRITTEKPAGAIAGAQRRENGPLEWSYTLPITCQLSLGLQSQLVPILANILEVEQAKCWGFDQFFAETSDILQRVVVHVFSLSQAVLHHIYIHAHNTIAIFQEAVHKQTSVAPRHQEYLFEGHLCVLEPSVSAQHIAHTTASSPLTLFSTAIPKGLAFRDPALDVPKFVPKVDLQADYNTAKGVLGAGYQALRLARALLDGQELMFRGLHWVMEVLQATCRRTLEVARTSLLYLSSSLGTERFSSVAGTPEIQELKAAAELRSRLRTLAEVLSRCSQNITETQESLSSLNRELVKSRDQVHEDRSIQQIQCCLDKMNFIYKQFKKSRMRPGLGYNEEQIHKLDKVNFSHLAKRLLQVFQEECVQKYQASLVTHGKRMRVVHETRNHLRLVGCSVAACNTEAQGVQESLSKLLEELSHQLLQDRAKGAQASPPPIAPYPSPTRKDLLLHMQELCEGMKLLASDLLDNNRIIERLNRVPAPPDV

[5] = molecular target: Receptor tyrosine-protein kinase erbB-2 (Homo sapiens, UniProt P04626); experiment: Selectivity interaction (Kinase panel (Invitrogen)) EUB0000639a ERBB2; conditions: at 200 nM
Receptor tyrosine-protein kinase erbB-2, sequence (P04626 whole entry): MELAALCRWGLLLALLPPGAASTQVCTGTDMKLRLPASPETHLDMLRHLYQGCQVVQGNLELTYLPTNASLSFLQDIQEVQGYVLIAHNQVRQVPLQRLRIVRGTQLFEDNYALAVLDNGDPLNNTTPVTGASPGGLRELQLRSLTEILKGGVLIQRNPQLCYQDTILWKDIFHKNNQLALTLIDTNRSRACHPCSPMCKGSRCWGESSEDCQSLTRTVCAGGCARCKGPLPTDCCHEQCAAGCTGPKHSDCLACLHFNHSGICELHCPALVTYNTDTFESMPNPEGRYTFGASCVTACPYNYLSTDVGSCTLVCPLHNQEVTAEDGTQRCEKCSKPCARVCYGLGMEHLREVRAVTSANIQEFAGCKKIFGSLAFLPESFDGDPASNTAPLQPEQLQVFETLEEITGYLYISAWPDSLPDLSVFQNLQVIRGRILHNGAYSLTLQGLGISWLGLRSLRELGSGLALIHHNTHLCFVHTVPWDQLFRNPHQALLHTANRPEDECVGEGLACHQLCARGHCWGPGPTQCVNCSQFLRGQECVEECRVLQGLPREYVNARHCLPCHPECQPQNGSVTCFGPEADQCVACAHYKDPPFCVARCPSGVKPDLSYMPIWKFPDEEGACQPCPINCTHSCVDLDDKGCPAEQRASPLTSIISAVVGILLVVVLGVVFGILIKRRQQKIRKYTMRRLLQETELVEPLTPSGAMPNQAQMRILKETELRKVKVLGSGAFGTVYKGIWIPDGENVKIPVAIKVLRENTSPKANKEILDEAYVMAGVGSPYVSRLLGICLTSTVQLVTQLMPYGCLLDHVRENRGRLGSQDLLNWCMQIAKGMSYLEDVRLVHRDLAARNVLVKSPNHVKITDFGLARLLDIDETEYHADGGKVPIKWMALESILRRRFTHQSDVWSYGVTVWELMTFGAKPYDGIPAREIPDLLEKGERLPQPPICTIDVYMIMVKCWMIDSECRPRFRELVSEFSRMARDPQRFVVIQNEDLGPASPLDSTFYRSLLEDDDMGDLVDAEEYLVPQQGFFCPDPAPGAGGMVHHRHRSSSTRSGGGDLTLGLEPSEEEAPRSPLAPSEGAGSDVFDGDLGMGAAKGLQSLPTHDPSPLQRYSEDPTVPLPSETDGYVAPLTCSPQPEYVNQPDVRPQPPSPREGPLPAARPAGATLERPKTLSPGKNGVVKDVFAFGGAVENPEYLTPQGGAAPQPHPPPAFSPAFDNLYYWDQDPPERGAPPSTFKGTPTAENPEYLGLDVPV

[6] = molecular target: T3, Cyclin-dependent kinase 11A (Homo sapiens) (UniProt Q9UQ88); experiment: Selectivity interaction (ActivX KiNativ screen (kinase selectivity in THP-1 cell lysates)) EUB0000639a CDK11A; format: subcellular; conditions: lysate, at 5 µM
T3 sequence (whole entry): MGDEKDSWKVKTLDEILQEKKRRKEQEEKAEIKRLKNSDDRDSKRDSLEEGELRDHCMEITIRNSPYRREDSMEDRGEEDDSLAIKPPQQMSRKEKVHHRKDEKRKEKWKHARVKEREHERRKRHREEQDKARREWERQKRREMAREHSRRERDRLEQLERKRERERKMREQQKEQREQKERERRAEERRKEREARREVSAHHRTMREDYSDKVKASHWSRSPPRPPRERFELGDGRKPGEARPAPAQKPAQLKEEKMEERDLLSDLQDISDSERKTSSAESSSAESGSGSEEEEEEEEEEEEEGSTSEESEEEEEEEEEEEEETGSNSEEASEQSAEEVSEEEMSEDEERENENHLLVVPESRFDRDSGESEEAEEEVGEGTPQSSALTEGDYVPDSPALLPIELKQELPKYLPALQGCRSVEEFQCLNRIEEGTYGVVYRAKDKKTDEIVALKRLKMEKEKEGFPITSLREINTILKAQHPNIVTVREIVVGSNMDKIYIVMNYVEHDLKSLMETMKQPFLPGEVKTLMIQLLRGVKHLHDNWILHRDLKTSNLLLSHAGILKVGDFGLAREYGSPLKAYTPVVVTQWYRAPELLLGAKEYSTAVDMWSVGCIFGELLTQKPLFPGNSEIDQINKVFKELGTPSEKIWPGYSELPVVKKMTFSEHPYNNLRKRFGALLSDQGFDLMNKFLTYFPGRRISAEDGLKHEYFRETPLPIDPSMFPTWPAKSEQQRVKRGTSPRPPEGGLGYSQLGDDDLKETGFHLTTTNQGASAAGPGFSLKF

[7] = molecular target: T4, Aurora kinase C (Homo sapiens) (UniProt Q9UQB9); experiment: Selectivity interaction (KinomeScan (DiscoverX)) EUB0000666a AURKC; conditions: at 10 µM
T4 sequence (whole entry): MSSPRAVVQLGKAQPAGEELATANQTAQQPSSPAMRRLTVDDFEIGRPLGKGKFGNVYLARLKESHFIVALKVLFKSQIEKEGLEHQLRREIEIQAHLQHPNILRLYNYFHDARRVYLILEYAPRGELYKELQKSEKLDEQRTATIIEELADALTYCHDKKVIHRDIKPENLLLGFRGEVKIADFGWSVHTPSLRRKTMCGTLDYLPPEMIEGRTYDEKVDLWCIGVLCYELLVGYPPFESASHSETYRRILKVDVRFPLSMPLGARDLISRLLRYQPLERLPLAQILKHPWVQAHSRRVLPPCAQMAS

[8] = molecular target: Proto-oncogene tyrosine-protein kinase Src (Homo sapiens, UniProt P12931); experiment: Selectivity interaction (Kinase panel (Z-LYTE Assay)) EUB0001632a SRC; conditions: at 10 µM
Proto-oncogene tyrosine-protein kinase Src, sequence (P12931 2-536 limits assumed): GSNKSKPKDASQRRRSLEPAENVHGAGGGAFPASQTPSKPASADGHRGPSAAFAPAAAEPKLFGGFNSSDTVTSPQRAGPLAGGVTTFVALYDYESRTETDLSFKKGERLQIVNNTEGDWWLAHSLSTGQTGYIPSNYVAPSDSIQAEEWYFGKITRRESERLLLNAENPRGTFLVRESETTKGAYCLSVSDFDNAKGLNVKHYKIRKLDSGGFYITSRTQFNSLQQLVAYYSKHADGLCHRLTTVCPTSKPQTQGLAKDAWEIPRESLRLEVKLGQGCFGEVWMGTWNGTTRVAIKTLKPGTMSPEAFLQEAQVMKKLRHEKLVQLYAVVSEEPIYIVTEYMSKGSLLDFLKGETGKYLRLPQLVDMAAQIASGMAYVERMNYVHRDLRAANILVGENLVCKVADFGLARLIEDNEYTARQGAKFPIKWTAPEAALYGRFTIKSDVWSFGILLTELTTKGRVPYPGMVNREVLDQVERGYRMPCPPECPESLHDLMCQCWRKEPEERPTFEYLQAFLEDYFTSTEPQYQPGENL

Mitogen-activated protein kinase kinase kinase 20 (Homo sapiens), sequence (Q9NYL2 2-800 limits assumed): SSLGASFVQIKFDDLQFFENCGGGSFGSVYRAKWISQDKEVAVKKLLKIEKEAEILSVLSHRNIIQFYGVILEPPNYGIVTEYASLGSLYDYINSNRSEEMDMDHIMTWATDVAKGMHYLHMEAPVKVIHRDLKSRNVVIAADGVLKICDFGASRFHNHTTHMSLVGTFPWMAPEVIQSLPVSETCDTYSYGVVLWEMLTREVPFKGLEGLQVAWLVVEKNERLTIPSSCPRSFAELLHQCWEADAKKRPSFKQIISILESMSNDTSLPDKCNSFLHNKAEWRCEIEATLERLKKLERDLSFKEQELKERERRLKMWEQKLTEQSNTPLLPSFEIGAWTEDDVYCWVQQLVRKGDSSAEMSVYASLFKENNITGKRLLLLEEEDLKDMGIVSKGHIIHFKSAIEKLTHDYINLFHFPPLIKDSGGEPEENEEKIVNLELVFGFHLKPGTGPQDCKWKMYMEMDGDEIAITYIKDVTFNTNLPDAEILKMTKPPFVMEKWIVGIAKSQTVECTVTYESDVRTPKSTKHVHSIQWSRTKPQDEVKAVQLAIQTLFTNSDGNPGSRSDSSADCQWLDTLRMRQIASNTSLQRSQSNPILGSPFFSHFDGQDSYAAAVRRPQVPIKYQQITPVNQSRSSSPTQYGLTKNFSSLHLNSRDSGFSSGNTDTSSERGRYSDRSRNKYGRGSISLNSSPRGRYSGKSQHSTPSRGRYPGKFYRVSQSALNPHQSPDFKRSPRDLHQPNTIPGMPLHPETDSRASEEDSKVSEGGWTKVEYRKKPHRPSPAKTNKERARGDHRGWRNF

Compound: O[C@H]1CC[C@H](Nc2ncc3nc(Nc4c(F)cc(F)cc4F)n([C@H]4CCOC4)c3n2)CC1
- % of control [1]: 100%

Compound: COCC(=O)NC/C=C/c1ccc2ncnc(Nc3ccc(Oc4ccc(C)nc4)c(C)c3)c2c1 [CP-724714]
- % of control [2]: 100%
- % of control [3]: 100%

- % of inhibition [4]: -29.9%
- % of inhibition [5]: -2.18%
- % of inhibition [6]: -20.8%
Compound: CC[C@@H]1[C@H](F)C(=O)N[C@@H]1COc1nccc2cc(C(N)=O)c(OC)cc12 [ZIMLOVISERTIB]

Compound: O=C(NOC[C@H](O)CO)c1ccc(F)c(F)c1Nc1ccc(I)cc1F
- % of control [7]: 45%

- % of control [8]: 12.1%
Compound: Cn1cc(-n2cnc3c(NCc4nc5cc(Cl)c(Cl)cc5[nH]4)nc(N4CCOCC4)nc32)cn1
